Here are results for one compound from patent US8629300B2, “Arylamine-substituted divinyl fluorenes and their use for electrophotographic applications, and for OLEDs (organic light emitting devices)” (Sensient Imaging Technologies GmbH, priority 2006, dated 2014).

This data set is described as follows: Solubility analysis in methylen chloride or THF. The format is physicochemical. As to the method:
Compound 12 complies with the solubility requirements set by the industry of 1 g substance/6 ml methylen chloride or THF. This compound was scaled up to 35 g. The compound was brought to an HPLC purity of >99.5% by using conventional purification methods, like e.g. recrystallization or column chromatography.

Turning to `Cc1ccc(N(c2ccc(C)cc2)c2ccc(/C=C/c3ccc4c(c3)C(C)(C)c3cc(/C=C/c5ccc(N(c6ccc(C)cc6)c6ccc(C)cc6)cc5)ccc3-4)cc2)cc1` [Compound 12, 2,7-Bis-(4-di-p-tolylaminophenylethenyl)-9,9-dimethyl-9H-fluorene], the “solubility (complies with the solubility requirements set by the industry)” value is at least 1 g substance/6 ml.
